Test results as given in patent US20050176655A1, “Novel macrolide derivatives havaing effect of potentiating antifungal activity” (priority 2002, published 2005).

Legend:
Experiment in all cases: Paper disk method, enhancing action for activities of azole antifungal agents
Assay type in all cases: cell-based
[1] = test system: fluconazole resistant Candida albicans ATCC 64550; details: 24 hours; for Inhibition activity (inhibition ring mm) C. albicans ATCC 64550 GYM / Transparency of the inhibition ring C. albicans ATCC 64550 GYM: miconazole 0.15 μg/ml; for Inhibition activity (inhibition ring mm) C. albicans ATCC 64550 GYF / Transparency of the inhibition ring C. albicans ATCC 64550 GYF: fluconazole 30 μg/ml
Experimental: (§1) Test organisms used were Candida albicans ATCC 64548, fluconazole resistant Candida albicans ATCC 64550 and Aspergillus niger ATCC 6275. Candida spp. were cultured in Waksman broth (glucose 2.0%, peptone 0.5%, dry yeast 0.3%, meat extract 0.5%, NaCl 0.5% and CaCO3 0.3%, pH 7.0) at 27° C. for 40 hours, then 0.1% thereof was inoculated on GY agar medium (glucose 1.0%, yeast extract 0.5% and agar 0.8%, pH 6.0). Spore suspension 0.2% of Aspergillus niger ATCC 6275 was inoculated on GY agar medium.
(§2) Azole antifungal agents used were miconazole (Sigma Inc., the U.S.) and fluconazole (ICN Pharmaceuticals, Inc., the U.S.), and were added at concentrations without affecting growth on each test organisms follows.
Candida albicans ATCC 64550: miconazole 0.15 μg/ml or fluconazole 30 μg/ml.
(§3) In the above medium, a medium added with miconazole to GY medium (control) is designated as GYM, and a medium added with fluconazole is designated as GYF. Activities were assessed by means of paper disk method (thickness: 8 mm, ADVANTEC MFS INC., Japan). Diameter of inhibition ring is expressed with mm unit after culturing Candida spp. for 24 hours and Aspergillus niger ATCC 6275 for 48 hours. Transparency of the inhibition ring is assessed with 5 degrees of A, B, C, D and E (transparence<A<B<C<D<E<opaque).

[2] = test system: Candida albicans ATCC 64548; details: 24 hours; for Inhibition activity (inhibition ring mm) C. albicans ATCC 64548 GYM / Transparency of the inhibition ring C. albicans ATCC 64548 GYM: miconazole 0.03 μg/ml
Experimental: as §1, §2
Candida albicans ATCC 64548: miconazole 0.03 μg/ml or fluconazole 0.5 μg/ml.
as §3

[3] = test system: Aspergillus niger ATCC 6275; details: 48 hours; for Inhibition activity (inhibition ring mm) A. niger ATCC 6275 GYM / Transparency of the inhibition ring A. niger ATCC 6275 GYM: miconazole 0.1 μg/ml; for Inhibition activity (inhibition ring mm) A. niger ATCC 6275 GY / Transparency of the inhibition ring A. niger ATCC 6275 GY: GY medium (control, no azole); for Inhibition activity (inhibition ring mm) A. niger ATCC 6275 GYF / Transparency of the inhibition ring A. niger ATCC 6275 GYF: fluconazole 10 μg/ml
Experimental: as §1, §2
Aspergillus niger ATCC 6275: miconazole 0.1 μg/ml or fluconazole 10 μg/ml.
as §3

[4] = 100 μg/8 mm disk, GYF, fluconazole 0.5 μg/ml

Row | SMILES | Inhibition activity (inhibition ring mm) C. albicans ATCC 64550 GYM ([1]; 100 μg/8 mm disk) | Transparency of the inhibition ring C. albicans ATCC 64550 GYM ([1]; 100 μg/8 mm disk) | Inhibition activity (inhibition ring mm) C. albicans ATCC 64548 GYM ([2]; 100 μg/8 mm disk) | Transparency of the inhibition ring C. albicans ATCC 64548 GYM ([2]; 100 μg/8 mm disk) | Inhibition activity (inhibition ring mm) A. niger ATCC 6275 GYM ([3]; 50 μg/8 mm disk) | Transparency of the inhibition ring A. niger ATCC 6275 GYM ([3]; 50 μg/8 mm disk) | Inhibition activity (inhibition ring mm) A. niger ATCC 6275 GY ([3]; 50 μg/8 mm disk) | Transparency of the inhibition ring A. niger ATCC 6275 GY ([3]; 50 μg/8 mm disk) | Inhibition activity (inhibition ring mm) A. niger ATCC 6275 GYF ([3]; 50 μg/8 mm disk) | Transparency of the inhibition ring A. niger ATCC 6275 GYF ([3]; 50 μg/8 mm disk) | Inhibition activity (inhibition ring mm) C. albicans ATCC 64550 GYF ([1]; 50 μg/8 mm disk) | Transparency of the inhibition ring C. albicans ATCC 64550 GYF ([1]; 50 μg/8 mm disk) | Inhibition activity (inhibition ring mm) C. albicans ATCC 64550 GYM ([1]; 50 μg/8 mm disk) | Transparency of the inhibition ring C. albicans ATCC 64550 GYM ([1]; 50 μg/8 mm disk) | Inhibition activity (inhibition ring mm) C. albicans ATCC 64548 GYM ([2]; 50 μg/8 mm disk) | Transparency of the inhibition ring C. albicans ATCC 64548 GYM ([2]; 50 μg/8 mm disk) | Inhibition activity (inhibition ring mm) A. niger ATCC 6275 GYF ([3]; 10 μg/8 mm disk) | Transparency of the inhibition ring A. niger ATCC 6275 GYF ([3]; 10 μg/8 mm disk) | Inhibition activity (inhibition ring mm) A. niger ATCC 6275 GYM ([3]; 10 μg/8 mm disk) | Transparency of the inhibition ring A. niger ATCC 6275 GYM ([3]; 10 μg/8 mm disk) | other results
1 | CCC(OC(C)=O)C(C)(O)C1OC(=O)C(C)C(OC2CC(C)(OC)C(OC(C)=O)C(C)O2)C(C)C(OC2OC(C)CC(N(C)C)C2O)C2(C)CC(C)=C(O2)C1C (stereo not shown) [Compound 755, 4″,13-Di-O-acetyl-8,9-Anhydro-pseudo erythromycin A 6,9-hemiketal] | 10 mm | E (Growth of test organism was inhibited 35% or less.) | 17 mm | D (Growth of test organism was inhibited 35% or more and 55% or less.) | 16 mm | E (Growth of test organism was inhibited 35% or less.) |  |  |  |  |  |  |  |  |  |  |  |  |  |  | 
2 | CCC(OC(C)=O)C(C)(O)C1OC(=O)C(C)C(OC2CC(C)(OC)C(OC(C)=O)C(C)O2)C(C)C(OC2OC(C)CC(NC)C2O)C2(C)CC(C)=C(O2)C1C (stereo not shown) [Compound 756, 4″,13-Di-O-acetyl-de (3′-N-methyl)-8,9-Anhydro-pseudoerythromycin A 6,9-hemiketal] | 10 mm | E (Growth of test organism was inhibited 35% or less.) | 15 mm | D (Growth of test organism was inhibited 35% or more and 55% or less.) | 14 mm | E (Growth of test organism was inhibited 35% or less.) | 10 mm | E (Growth of test organism was inhibited 35% or less.) | 14 mm | E (Growth of test organism was inhibited 35% or less.) |  |  |  |  |  |  |  |  |  |  | 
3 | CCC(OC(=O)c1ccccc1)C(C)(O)C1OC(=O)C(C)C(OC2CC(C)(OC)C(OC(=O)c3ccccc3)C(C)O2)C(C)C(OC2OC(C)CC(N(C)C)C2OC(=O)c2ccccc2)C2(C)CC(C)=C(O2)C1C (stereo not shown) [Compound 770, 2′,4″,13-Tri-O-benzoyl-8,9-Anhydro-pseudoerythromycin A 6,9-hemiketal] |  |  |  |  | 12 mm | E (Growth of test organism was inhibited 35% or less.) | 11 mm | E (Growth of test organism was inhibited 35% or less.) | 18 mm | E (Growth of test organism was inhibited 35% or less.) | 13 mm | C (Growth of test organism was inhibited 55% or more and 75% or less.) | 13 mm | A (Growth of test organism was inhibited 95% or more.) | 14 mm | C (Growth of test organism was inhibited 55% or more and 75% or less.) | 11 mm | E (Growth of test organism was inhibited 35% or less.) |  |  | Inhibition activity (inhibition ring mm) C. albicans ATCC 64548 GYM ([2]; 10 μg/8 mm disk): 11 mm; Transparency of the inhibition ring C. albicans ATCC 64548 GYM ([2]; 10 μg/8 mm disk): D (Growth of test organism was inhibited 35% or more and 55% or less.); Inhibition activity (inhibition ring mm) C. albicans ATCC 64548 GYF [2, 4]: 11 mm; Transparency of the inhibition ring C. albicans ATCC 64548 GYF [2, 4]: D (Growth of test organism was inhibited 35% or more and 55% or less.)
4 | CCC(=O)OC1C(C)OC(OC2C(C)C(=O)OC(C(C)(O)C(CC)OC(=O)CC)C(C)C3=C(C)CC(C)(O3)C(OC3OC(C)CC(N(C)C)C3OC(C)=O)C2C)CC1(C)OC (stereo not shown) [Compound 771, 2′-O-acetyl-4″,13-Di-O-propionyl-8,9-Anhydro-pseudoerythromycin A 6,9-hemiketal] |  |  |  |  | 23 mm | E (Growth of test organism was inhibited 35% or less.) |  |  | 15 mm | E (Growth of test organism was inhibited 35% or less.) | 10 mm | E (Growth of test organism was inhibited 35% or less.) | 10 mm | A (Growth of test organism was inhibited 95% or more.) | 12 mm | D (Growth of test organism was inhibited 35% or more and 55% or less.) | 14 mm | E (Growth of test organism was inhibited 35% or less.) |  |  | 
5 | CCC1OC1(C)C1OC(=O)C(C)C(OC2CC(C)(OC)C(OS(=O)(=O)c3ccccc3)C(C)O2)C(C)C(OC2OC(C)CC(N(C)C)C2OC(C)=O)C2(C)CC(C)=C(O2)C1C (stereo not shown) [Compound 774, 2′-O-acetyl-4″-O-benzenesulfonyl-12,13-epoxy-8,9-Anhydro-pseudoerythromycin A 6,9-hemiketal] |  |  |  |  | 18 mm | D (Growth of test organism was inhibited 35% or more and 55% or less.) |  |  | 17 mm | E (Growth of test organism was inhibited 35% or less.) | 17 mm | A (Growth of test organism was inhibited 95% or more.) | 17 mm | A (Growth of test organism was inhibited 95% or more.) |  |  | 14 mm | E (Growth of test organism was inhibited 35% or less.) | 13 mm | E (Growth of test organism was inhibited 35% or less.) | Inhibition activity (inhibition ring mm) C. albicans ATCC 64550 GYF ([1]; 10 μg/8 mm disk): 13 mm; Transparency of the inhibition ring C. albicans ATCC 64550 GYF ([1]; 10 μg/8 mm disk): A (Growth of test organism was inhibited 95% or more.); Inhibition activity (inhibition ring mm) C. albicans ATCC 64550 GYM ([1]; 10 μg/8 mm disk): 14 mm; Transparency of the inhibition ring C. albicans ATCC 64550 GYM ([1]; 10 μg/8 mm disk): A (Growth of test organism was inhibited 95% or more.)
6 | CCC1OC1(C)C1OC(=O)C(C)C(OC2CC(C)(OC)C(OS(=O)(=O)Cc3ccccc3)C(C)O2)C(C)C(OC2OC(C)CC(N(C)C)C2O)C2(C)CC(C)=C(O2)C1C (stereo not shown) [Compound 780, 4″-O-benzylsulfonyl-12,13-epoxy-8,9-anhydro-pseudoerythromycin A. 6,9-hemiketal] |  |  |  |  | 14 mm | E (Growth of test organism was inhibited 35% or less.) | 12 mm | E (Growth of test organism was inhibited 35% or less.) | 12 mm | E (Growth of test organism was inhibited 35% or less.) | 14 mm | C (Growth of test organism was inhibited 55% or more and 75% or less.) | 12 mm | C (Growth of test organism was inhibited 55% or more and 75% or less.) |  |  | 11 mm | E (Growth of test organism was inhibited 35% or less.) | 14 mm | E (Growth of test organism was inhibited 35% or less.) | 
